Consider ten compounds from patent publication US6492380B1, “Method of inhibiting neurotrophin-receptor binding” (Queen's University at Kingston, priority 1999, dated 2002).

Data set [1] has as its system T1, PC12 cells expressing TrkA and p75^NTR.
T1 construct: host or cells: PC12 (rat pheochromocytoma)
As to the kind of experiment: 125I-NGF receptor binding inhibition, PC12 cells. Set-up: species or system rat. To be noted: compound 50 μM; 125I-NGF 1 nM; 2 h at 4° C.; value is mean of the three replicates. As to the method: (§1) The radio-iodination and receptor binding of NGF (Sutter et al., 1979) was performed with modifications (Ross et al., 1997) as follows: Evaluation of the ability of NCP compounds to inhibit TrkA and p75^NTR binding was determined by the binding of ^125I-NGF to PC12 cells (rat pheochromocytoma cells expressing TrkA and p75^NTR obtained from ATCC) and PC12^nnr5 (rat pheocliromocytoma cells expressing p75^NTR only; obtained from Dr. L. Greene, Columbia University, NY). The p75^NTR is in a low affinity state and a high affinity state, respectively, in these cell types (Ross et al., 1998). PC12 and PC12^nnr5 cells were grown in RPMI (Sigma) with 10% heat inactivated donor horse serum and 5% fetal calf serum. Cells were harvested by replacing the medium with calcium, magnesium-free balanced salt solution (Gey's solution) and incubating at 37° C. for 15 minutes. Cells were pelleted by centrifugation and suspended in HKR buffer (10 mM Hepes [pH 7.35] containing 125 mM NaCl, 4.8 mM KCl, 1.3 mM CaCl2, 1.2 mM MgSO4, 1.2 mM KH2PO4, 1 g/L glucose and 1 g/L BSA) at a cell concentration of 2×10^6/mL and kept at 4° C. Triplicate tubes were set up for total binding, non-specific binding and binding in the presence of candidate competitor molecule (i.e., a tube for each data point). Each tube contained ^125I-NGF (at 1 nM), 400,000 cells (for a final cell concentration of 10^6/mL) and NGF (50 nM, to define non-specific binding), as required. The tubes were incubated for 2 h at 4° C. and specific binding evaluated by measuring specifically bound DPM (Ross et al., 1997). Data were analysed and the results expressed as receptor binding observed in the presence of competitor as a percentage of receptor binding in the absence of a competitor.

Data set [2] relates to T2, PC12^nnr5 cells expressing p75^NTR only.
T2 construct: PC12^nnr5 (rat pheocliromocytoma cells expressing p75^NTR only; obtained from Dr. L. Greene, Columbia University, NY); host or cells: PC12nnr5 (rat pheochromocytoma subline)
T2 sequence (P01139 122-241): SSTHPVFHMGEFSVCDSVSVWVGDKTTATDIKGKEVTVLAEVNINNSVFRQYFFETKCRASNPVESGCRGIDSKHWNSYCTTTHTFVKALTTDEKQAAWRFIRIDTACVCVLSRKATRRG
As to the kind of experiment: 125I-NGF receptor binding inhibition, PC12^nnr5 cells. Set-up: species or system rat. To be noted: compound 50 μM; 125I-NGF 1 nM; 2 h at 4° C.; value is mean of the three replicates. The method, then: as §1

The conditions of data set [3]: @ 100 μM DMSO.

T1 sequence (P01139 122-241): as above

Take `O=C(O)CN1C(=O)c2cccc3cc([N+](=O)[O-])cc(c23)C1=O` [Compound 200, N-(1-carboxymethyl)-3-nitro-1,8-naphthalimide; 2-(1-carboxymethyl)-5-nitrobenzo[d,e]isoquinoline-1,3-dione]: in data set [1], the “PC12 % of Max (receptor binding in presence of competitor as percentage of binding in absence of competitor)” value is given as 92, 87, 74 = 84 % of Max. The “nnr5 % of Max (receptor binding in presence of competitor as percentage of binding in absence of competitor)” value in data set [2] is 58, 63, 64 = 62 % of Max.
In the case of `O=C(O)CCN1C(=O)c2cccc3cc([N+](=O)[O-])cc(c23)C1=O` [Compound 201, N-(2-carboxyethyl)-3-nitro-1,8-naphthalimide; 2-(2-carboxyethyl)-5-nitrobenzo[d,e]isoquinoline-1,3-dione], the “PC12 % of Max (receptor binding in presence of competitor as percentage of binding in absence of competitor)” value in data set [1] is listed as 27, 32, 41 = 33 % of Max. For the same compound, the “nnr5 % of Max (receptor binding in presence of competitor as percentage of binding in absence of competitor)” value in data set [2] is listed as 30, 4, 34 = 23 % of Max.
For the compound `O=C(O)CCCN1C(=O)c2cccc3cc([N+](=O)[O-])cc(c23)C1=O` [Compound 202, N-(3-carboxypropyl)-3-nitro-1,8-naphthalimide; 2-(3-carboxypropyl)-5-nitrobenzo[d,e]isoquinoline-1,3-dione], the “PC12 % of Max (receptor binding in presence of competitor as percentage of binding in absence of competitor)” value in data set [1] was 21, 22, 30 = 24 % of Max. Moreover, the “nnr5 % of Max (receptor binding in presence of competitor as percentage of binding in absence of competitor)” value in data set [2] is 16, 0, 0 = 5 % of Max.
Turning to `O=C(O)CCCCN1C(=O)c2cccc3cc([N+](=O)[O-])cc(c23)C1=O` [Compound 203, N-(4-carboxybutyl)-3-nitro-1,8-naphthalimide; 2-(4-carboxybutyl)-5-nitrobenzo[d,e]isoquinoline-1,3-dione], the “PC12 % of Max (receptor binding in presence of competitor as percentage of binding in absence of competitor)” value in data set [1] is given as 36, 41, 35 = 37 % of Max. Further, in data set [2], the “nnr5 % of Max (receptor binding in presence of competitor as percentage of binding in absence of competitor)” value is 33, 0, 18 = 17 % of Max.
As for `O=C(O)CCCCCN1C(=O)c2cccc3cc([N+](=O)[O-])cc(c23)C1=O` [Compound 204, N-(5-carboxypentyl)-3-nitro-1,8-naphthalimide; 2-(5-carboxypentyl)-5-nitrobenzo[d,e]isoquinoline-1,3-dione], the “PC12 % of Max (receptor binding in presence of competitor as percentage of binding in absence of competitor)” value in data set [1] is recorded as 41, 41, 36 = 39 % of Max. Further, in data set [2], the “nnr5 % of Max (receptor binding in presence of competitor as percentage of binding in absence of competitor)” value is reported as 12, 0, 47 = 20 % of Max.
Consider `O=C(O)CN1C(=O)c2cccc3c([N+](=O)[O-])ccc(c23)C1=O` [Compound 220, N-(1-carboxymethyl)-4-nitro-1,8-naphthalimide; 2-(1-carboxymethyl)-6-nitrobenzo[d,e]isoquinoline-1,3-dione], for which the Solubility in data set [3] is 220 NS (NS: Not Soluble @ 100 μM DMSO). Further, the “PC12 % of Max (receptor binding in presence of competitor as percentage of binding in absence of competitor)” value in data set [1] is listed as 37, 43, 49 = 43 % of Max. Further, the “nnr5 % of Max (receptor binding in presence of competitor as percentage of binding in absence of competitor)” value in data set [2] is 21, 17, 26 = 21 % of Max.
On to `O=C(O)CCN1C(=O)c2cccc3c([N+](=O)[O-])ccc(c23)C1=O` [Compound 221, N-(2-carboxyethyl)-4-nitro-1,8-naphthalimide; 2-(2-carboxyethyl)-6-nitrobenzo[d,e]isoquinoline-1,3-dione], for which the “PC12 % of Max (receptor binding in presence of competitor as percentage of binding in absence of competitor)” value in data set [1] is 29, 32, 31 = 31 % of Max. In addition, the “nnr5 % of Max (receptor binding in presence of competitor as percentage of binding in absence of competitor)” value in data set [2] is 41, 37, 42 = 40 % of Max.
As for `O=C(O)CCCN1C(=O)c2cccc3c([N+](=O)[O-])ccc(c23)C1=O` [Compound 222, N-(3-carboxypropyl)-4-nitro-1,8-naphthalimide; 2-(3-carboxypropyl)-6-nitrobenzo[d,e]isoquinoline-1,3-dione], the Solubility in data set [3] was 222 NS (NS: Not Soluble @ 100 μM DMSO).
With `O=C(O)CCCCN1C(=O)c2cccc3c([N+](=O)[O-])ccc(c23)C1=O` [Compound 223, N-(4-carboxybutyl)-4-nitro-1,8-naphthalimide; 2-(4-carboxybutyl)-6-nitrobenzo[d,e]isoquinoline-1,3-dione], the “PC12 % of Max (receptor binding in presence of competitor as percentage of binding in absence of competitor)” value in data set [1] is on record as 27, 33, 33 = 31 % of Max. In data set [2], the “nnr5 % of Max (receptor binding in presence of competitor as percentage of binding in absence of competitor)” value is recorded as 40, 41, 47 = 43 % of Max.
`O=C(O)CCCCCN1C(=O)c2cccc3c([N+](=O)[O-])ccc(c23)C1=O` [Compound 224, N-(5-carboxypentyl)-4-nitro-1,8-naphthalimide; 2-(5-carboxypentyl)-6-nitrobenzo[d,e]isoquinoline-1,3-dione]: the “PC12 % of Max (receptor binding in presence of competitor as percentage of binding in absence of competitor)” value in data set [1] is given as 31, 34, 22 = 29 % of Max. In data set [2], the “nnr5 % of Max (receptor binding in presence of competitor as percentage of binding in absence of competitor)” value is reported as 36, 35, 39 = 36 % of Max.
